Patent US20250074891A1 (Anaxis Pharma Pty Ltd., priority 2021, published 2025)

Assays:
endogenous MLKL in U937 = endogenous MLKL in U937 (Homo sapiens (Human), UniProt Q8NB16); assay: Degradation assay: degradation of endogenous MLKL in human cells (Western blot); details: 24 h incubation, read-out: Degradation of endogenous MLKL in U937 (DC50 cell-based assay in μM)
Method: DEGRADATION ASSAY: Screening Compounds Procedure to Evaluate the Activity of Compounds in Degrading Endogenous MLKL in Human Cell
The human monocyte cell line (U937) was seeded on the day of the experiment in a 24-well plate at a cell density of 5*10^5 cells per well in a volume of 0.5 mL per well.
The compound was diluted in DMSO with a starting concentration of 10 mM and titrated stepwise with a dilution of 1:5. 0.5 μL of the compound dilution was added to the appropriate well to achieve a final concentration of 10; 2; 0.4; 0.08 and 0.016 μM. A DMSO only well was included as control.
The cells were incubated for 24 h in the presence of the compound at 37° C. and 10% CO2.
After the 24 h incubation period, the medium was removed and cells washed with 0.5 mL PBS. The cells were then lysed directly in 60 μL of 1×SDS gel loading buffer.
The cell lysate was heat-denatured at […] for 10 min. 10 μL of lysate per well were run on 18-well 4-15% Criterion TGX stain free gels (BIO-RAD). The proteins were then transferred onto nitrocellulose membrane with a wet transfer protocol in the Criterion Blotter (BIO-RAD).
Membranes were blocked with 5% skim milk in TBST. Primary antibody against MLKL (clone 3H1, MABC604 Merck) was used at 1:2000 dilution in TBST with 1% BSA and left shaking over night at 4° C. After washes with TBST, the membranes were incubated with goat anti-rat IgG HRP-conjugated antibody (Southern Biotech) in 1% skim milk TBST at 1:10000 dilution for 1 h at room temperature. After TBST washes the bands were imaged on the ChemiDoc MP Imaging Systm (BIO-RAD) with Immobilion Western Chemiluminescent HRP Substrate Forte (Millipore). The loading control GAPDH was probed for with rabbit anti-GAPDH (CST 14C10) at 1:2000 dilution in 1% BSA TBST over night at 4° C. TBST washes were followed by incubation with goat anti-rabbit IgG HRP-conjugated antibody (Southern Biotech) in 1% skim milk TBST at 1:10000 dilution for 1 h at room temperature followed by TBST washes. The signal was detected as described above.
The band intensity was measured in the ImageLab Software (BIO-RAD) and the MLKL values adjusted for loading with GAPDH. The percentage of degradation was calculated by normalizing the compound treated values to the DMSO only control.

MLKL (full length) = MLKL (full length) (Homo sapiens (Human), UniProt Q8NB16); assay: KINOMEscan binding assay, MLKL (full length); details: Table 36
Method: Kinase assays. For most assays, kinase-tagged T7 phage strains were grown in parallel in 24-well blocks in an E. coli host derived from the BL21 strain. E. coli were grown to log-phase and infected with T7 phage from a frozen stock (multiplicity of infection=0.4) and incubated with shaking at 32° C. until lysis (90-150 minutes).
The Hill Slope was set to −1.

U937 cells = assay: Counter screen: cell viability without TSQ cocktail (off-target effect); parameters: species or system human; details: Homo sapiens, U-937, Table 38, read-out: Off-target effect (IC50 cell-based assay)
Method: Counter screen: In parallel, all compounds were tested for their ability to affect cell viability. The same U937 cells were treated with compound in DMSO without the TSQ cocktail. This counter screen enabled evaluation of off-target effects. In this case, cell viability was measured by CelltiterGlo.

[1] = test system: U937 human histiocytic leukemia cell line; assay: Cellular assay: inhibition of TSQ induced necroptosis (CellTitre-Glo); details: Homo sapiens, U-937; U937 cells, TSQ cocktail, 48 hours, Table 38; read-out: Inhibition of TSQ-induced necroptosis (IC50 cell-based assay)
In short: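 U937 cells (20,000/well) pre-dosed with compound (10-point, 1:3 from 36 μM, 0.3% DMSO), then TSQ (hTNF-Fc 100 ng/ml, Smac mimetic 500 nM, Q-VD-OPh 10 μM) for 48 h at 37 °C. Viability by CellTiter-Glo luminescence, normalised to DMSO (100%) and DMSO+TSQ (0%); IC50 from 4-parameter fit.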

Sequence of endogenous MLKL in U937 (Q8NB16 whole entry): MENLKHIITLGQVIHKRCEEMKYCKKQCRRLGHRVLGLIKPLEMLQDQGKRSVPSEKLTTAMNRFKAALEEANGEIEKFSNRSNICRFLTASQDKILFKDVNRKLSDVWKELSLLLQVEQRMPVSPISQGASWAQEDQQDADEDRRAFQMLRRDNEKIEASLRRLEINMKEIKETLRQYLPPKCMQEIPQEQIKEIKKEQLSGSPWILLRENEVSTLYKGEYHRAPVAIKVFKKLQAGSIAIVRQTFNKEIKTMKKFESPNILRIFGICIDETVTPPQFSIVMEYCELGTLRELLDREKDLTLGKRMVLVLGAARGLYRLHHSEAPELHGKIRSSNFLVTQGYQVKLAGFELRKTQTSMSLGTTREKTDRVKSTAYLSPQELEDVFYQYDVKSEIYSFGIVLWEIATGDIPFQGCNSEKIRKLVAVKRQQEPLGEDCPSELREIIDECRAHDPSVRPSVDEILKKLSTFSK
Sequence of MLKL (full length) (Q8NB16 whole entry): as above

SMILES | DC50 (endogenous MLKL in U937) | Kd (MLKL (full length)) | IC50 (U937 cells) | IC50 [1]
CCS(=O)(=O)Nc1ccc(-c2n[nH]c(Nc3ccnc(OCCOCCOCCOCCOCCNC(=O)COc4cccc5c4C(=O)N(C4CCC(=O)NC4=O)C5=O)c3)c2C(N)=O)cc1 (stereo not shown) [Compound 1001, 5-[(2-{[14-(2-{[2-(2,6-dioxopiperidin-3-yl)-1,3-dioxo-2,3-dihydro-1H-isoindol-4-yl]oxy}acetamido)-3,6,9,12-tetraoxatetradecan-1-yl]oxy}pyridin-4-yl)amino]-3-(4-ethanesulfonamidophenyl)-1H-pyrazole-4-carboxamide] | 1 to 10 µM | < 10 nM | > 10000 nM | > 10000 nM
CCS(=O)(=O)Nc1ccc(-c2n[nH]c(Nc3ccnc(OCCOCCOCCOCCOCCOCCNC(=O)COc4cccc5c4C(=O)N(C4CCC(=O)NC4=O)C5=O)c3)c2C(N)=O)cc1 (stereo not shown) [Compound 1005, 5-[(2-{[17-(2-{[2-(2,6-dioxopiperidin-3-yl)-1,3-dioxo-2,3-dihydro-1H-isoindol-4-yl]oxy}acetamido)-3,6,9,12,15-pentaoxaheptadecan-1-yl]oxy}pyridin-4-yl)amino]-3-(4-ethanes-ulfonamidophenyl)-1H-pyrazole-4-carboxamide] | 1 to 10 µM | < 10 nM | > 10000 nM | > 10000 nM
CCS(=O)(=O)Nc1ccc(-c2n[nH]c(Nc3ccnc(OCCCCC(=O)N[C@H](C(=O)N4C[C@H](O)C[C@H]4C(=O)NCc4ccc(-c5scnc5C)cc4)C(C)(C)C)c3)c2C(N)=O)cc1 [Compound 1013, 3-(4-ethanesulfonamidophenyl)-5-{[2-(4-{[(2S)-1-[(2S,4R)-4-hydroxy-2-({[4-(4-methyl-1,3-thiazol-5-yl)phenyl]methyl}carbamoyl)pyrrolidin-1-yl]-3,3-dimethyl-1-oxobutan-2-yl]carbamoyl}butoxy)pyridin-4-yl]amino}-1H-pyrazole-4-carboxamide] | 1 to 10 µM | < 10 nM | > 10000 nM | 1000 to 10000 nM
Cc1ncsc1-c1ccc(CNC(=O)[C@@H]2C[C@@H](O)CN2C(=O)[C@@H](NC(=O)CCCCOc2cc(Nc3[nH]nc(-c4ccc(NS(=O)(=O)CC(F)(F)F)cc4)c3C(N)=O)ccn2)C(C)(C)C)cc1 [Compound 1016, 5-{[2-(4-{[(2S)-1-[(2S,4R)-4-hydroxy-2-({[4-(4-methyl-1,3-thiazol-5-yl)phenyl]methyl}carbamoyl)pyrrolidin-1-yl]-3,3-dimethyl-1-oxobutan-2-yl]carbamoyl}butoxy)pyridin-4-yl]amino}-3-[4-(2,2,2-trifluoroethanesulfonamido)phenyl]-1H-pyrazole-4-carboxamide] | 1 to 10 µM | < 10 nM | > 10000 nM | 1000 to 10000 nM
CCS(=O)(=O)Nc1ccc(-c2n[nH]c(Nc3ccc(OCCCCC(=O)N[C@H](C(=O)N4C[C@H](O)C[C@H]4C(=O)NCc4ccc(-c5scnc5C)cc4)C(C)(C)C)cn3)c2C(N)=O)cc1 [Compound 1019, 3-(4-ethanesulfonamidophenyl)-5-{[5-(4-{[(2S)-1-[(2S,4R)-4-hydroxy-2-({[4-(4-methyl-1,3-thiazol-5-yl)phenyl]methyl}carbamoyl)pyrrolidin-1-yl]-3,3-dimethyl-1-oxobutan-2-yl]carbamoyl}butoxy)pyridin-2-yl]amino}-1H-pyrazole-4-carboxamide] | < 1 µM | < 10 nM | > 10000 nM | < 1000 nM
Cc1ncsc1-c1ccc(CNC(=O)[C@@H]2C[C@@H](O)CN2C(=O)[C@@H](NC(=O)CCCCOc2ccc(Nc3[nH]nc(-c4ccc(NS(=O)(=O)CC(F)(F)F)cc4)c3C(N)=O)nc2)C(C)(C)C)cc1 [Compound 1020, 5-{[5-(4-{[(2S)-1-[(2S,4R)-4-hydroxy-2-({[4-(4-methyl-1,3-thiazol-5-yl)phenyl]methyl}carbamoyl)pyrrolidin-1-yl]-3,3-dimethyl-1-oxobutan-2-yl]carbamoyl}butoxy)pyridin-2-yl]amino}-3-[4-(2,2,2-trifluoroethanesulfonamido)phenyl]-1H-pyrazole-4-carboxamide] | < 1 µM | < 10 nM | > 10000 nM | < 1000 nM
Cc1ncsc1-c1ccc(CNC(=O)[C@@H]2C[C@@H](O)CN2C(=O)[C@@H](NC(=O)CCCCOc2ccc(Nc3[nH]nc(-c4ccc(NS(=O)(=O)C(F)F)cc4)c3C(N)=O)nc2)C(C)(C)C)cc1 [Compound 1021, 3-[4-(difluoromethanesulfonamido)phenyl]-5-{[5-(4-{[(2S)-1-[(2S,4R)-4-hydroxy-2-({[4-(4-methyl-1,3-thiazol-5-yl)phenyl]methyl}carbamoyl)pyrrolidin-1-yl]-3,3-dimethyl-1-oxobutan-2-yl]carbamoyl}butoxy)pyridin-2-yl]amino}-1H-pyrazole-4-carboxamide] | 1 to 10 µM | < 10 nM | > 10000 nM | < 1000 nM
CCS(=O)(=O)Nc1ccc(-c2n[nH]c(Nc3cnc(OCCCCC(=O)N[C@H](C(=O)N4C[C@H](O)C[C@H]4C(=O)NCc4ccc(-c5scnc5C)cc4)C(C)(C)C)cn3)c2C(N)=O)cc1OCc1ccc(F)cc1 [Compound 1023, 3-{4-ethanesulfonamido-3-[(4-fluorophenyl)methoxy]phenyl}-5-{[5-(4-{[(2S)-1-[(2S,4R)-4-hydroxy-2-({[4-(4-methyl-1,3-thiazol-5-yl)phenyl]methyl}carbamoyl)pyrrolidin-1-yl]-3,3-dimethyl-1-oxobutan-2-yl]carbamoyl}butoxy)pyrazin-2-yl]amino}-1H-pyrazole-4-carboxamide] | < 1 µM | < 10 nM | > 10000 nM | < 1000 nM
CCS(=O)(=O)Nc1ccc(-c2n[nH]c(Nc3ccc(OCCCCC(=O)N[C@H](C(=O)N4C[C@H](O)C[C@H]4C(=O)NCc4ccc(-c5scnc5C)cc4)C(C)(C)C)cn3)c2C(N)=O)cc1OCc1ccc(F)cc1 [Compound 1024, 3-{4-ethanesulfonamido-3-[(4-fluorophenyl)methoxy]phenyl}-5-{[5-(4-{[(2S)-1-[(2S,4R)-4-hydroxy-2-({[4-(4-methyl-1,3-thiazol-5-yl)phenyl]methyl}carbamoyl)pyrrolidin-1-yl]-3,3-dimethyl-1-oxobutan-2-yl]carbamoyl}butoxy)pyridin-2-yl]amino}-1H-pyrazole-4-carboxamide] | < 1 µM | < 10 nM | > 10000 nM | < 1000 nM
CCS(=O)(=O)Nc1ccc(-c2n[nH]c(Nc3ccc(C(=O)OCCCCC(=O)N[C@H](C(=O)N4C[C@H](O)C[C@H]4C(=O)NCc4ccc(-c5scnc5C)cc4)C(C)(C)C)cn3)c2C(N)=O)cc1O[C@@H](C)c1ccc(F)cc1 [Compound 1039, 4-{[(2S)-1-[(2S,4R)-4-hydroxy-2-({[4-(4-methyl-1,3-thiazol-5-yl)phenyl]methyl}carbamoyl)pyrrolidin-1-yl]-3,3-dimethyl-1-oxobutan-2-yl]carbamoyl}butyl 6-[(4-carbamoyl-3-{4-ethanesulfonamido-3-[(1S)-1-(4-fluorophenyl)ethoxy]phenyl}-1H-pyrazol-5-yl)amino]pyridine-3-carboxylate] | < 1 µM | 10 to 1000 nM | > 10000 nM | < 1000 nM
